Assay results published in PMC3362798 (Bioorganic & medicinal chemistry letters, 2012).
Where two headings read alike, the source gives them in different places. One block for each compound: values may come before it.

Columns and labels:
[1] = molecular target: T1, NPY Y2 receptor (Homo sapiens, UniProt P49146); assay: cAMP biosensor assay, NPY Y2 receptor antagonism; format: cell-based; details: for fold increase in potency compared to SF-11: more potent than SF-11
T1 sequence (P49146 1-381): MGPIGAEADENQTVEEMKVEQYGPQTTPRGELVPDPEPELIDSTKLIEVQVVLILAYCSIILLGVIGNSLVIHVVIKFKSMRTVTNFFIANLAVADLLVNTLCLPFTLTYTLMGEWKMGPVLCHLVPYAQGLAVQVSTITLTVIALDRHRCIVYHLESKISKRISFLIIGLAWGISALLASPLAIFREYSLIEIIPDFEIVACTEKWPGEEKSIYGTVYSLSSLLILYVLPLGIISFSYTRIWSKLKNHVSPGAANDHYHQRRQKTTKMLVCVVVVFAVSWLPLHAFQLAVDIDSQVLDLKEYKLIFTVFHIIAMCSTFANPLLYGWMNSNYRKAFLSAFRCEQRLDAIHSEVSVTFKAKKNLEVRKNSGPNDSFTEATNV

[2] = tested on: NPY Y1 and 38 off-target receptors, including GPCRs, transporters and ion-channels; details: cited from earlier work
[3] = cited from earlier work
[4] = tested on: NPY Y2; details: NPY Y2 antagonist; cited from earlier work
[5] = tested on: rats; details: intracerebroventricular (icv) administration; cited from earlier work
[6] = tested on: mice; details: intracerebroventricular (icv) administration; cited from earlier work

- NPY Y2 antagonist activity (in words) [1]: complete loss of activity
SMILES: OC(c1ccccc1)(c1ccccc1)C1CCN(C(=S)Nc2ccc(C(F)(F)F)cc2Cl)CC1 [Compound 29]

- NPY Y2 antagonist activity (in words) [1]: retained the antagonist activity
SMILES: CS(=O)(=O)Nc1ccc(OC(=O)N2CCC(C(O)(c3ccccc3)c3ccccc3)CC2)cc1 [Compound 63]

- NPY Y2 antagonist activity (in words) [1]: completely lost the activity
SMILES: CCC(=O)Nc1ccc(OC(=O)N2CCC(C(O)(c3ccccc3)c3ccccc3)CC2)cc1 [Compound 62]

- fold increase in potency compared to SF-11 [1]: 10 fold
SMILES: CN(C)S(=O)(=O)c1ccc(NC(=S)N2CCC(C(O)(c3ccccc3)c3ccccc3)CC2)cc1 [Compound 16]

SMILES: COc1cccc(-c2nc(-c3ccc(NC(=O)Cc4ccccc4OC)cc3)no2)c1 [SF-31]
- selectivity against NPY Y1 and 38 off-target receptors [2]: selective
- brain penetration ([3]; HTS hit chemotypes): brain-penetrant

SMILES: N=C(N)NCCC[C@H](NC(=O)CC1(CC(=O)N2CCN(C3c4ccccc4NC(=O)c4ccccc43)CC2)CCCC1)C(=O)NCCn1c(=O)n(-c2ccccc2)n(-c2ccccc2)c1=O (stereo partly shown) [BIIE0246]
- IC50 [4]: 3.3 nM
- ethanol consumption [5]: decreased ethanol consumption
- antidepressant-like effects [6]: induced antidepressant-like effects
- brain penetration ([3]; BIIE0246): poor brain penetration

SMILES: Cc1ccc(S(=O)(=O)C(c2ccccc2)c2c(C)noc2C)cc1 (stereo not shown) [SF-41]
- selectivity against NPY Y1 and 38 off-target receptors [2]: selective
- brain penetration ([3]; HTS hit chemotypes): brain-penetrant

SMILES: CCN(CC)C(=O)c1ccc(NC(=S)N2CCC(C(O)(c3ccccc3)c3ccccc3)CC2)cc1 [Compound 15]
- fold more potent than N,N-dimethylamide analogue 14 ([1]; compared with 14): 4 fold

- NPY Y2 antagonist activity (in words) [1]: no activity
SMILES: CCN(CC)C(=O)c1cccc(OC(=O)N2CCC(C(O)(c3ccccc3)c3ccccc3)CC2)c1 [Compound 64]

- fold increase in potency compared to SF-11 [1]: ~3 fold
SMILES: CCN(CC)c1ccc(NC(=S)N2CCC(C(O)(c3ccccc3)c3ccccc3)CC2)cc1 [Compound 8]

- NPY Y2 antagonist activity (in words) [1]: complete loss of activity
SMILES: CCOc1ccc(NC(=S)N2CCC(C(O)(c3ccccc3)c3ccccc3)CC2)c(C)c1 [Compound 27]

- NPY Y2 antagonist activity (in words) [1]: complete loss of activity
SMILES: OC(c1ccccc1)(c1ccccc1)C1CCN(C(=S)Nc2ccccc2)CC1 [Compound 1]

SMILES: CCOc1ccc(NC(=S)N2CCC(C(O)(c3ccccc3)c3ccccc3)CC2)cc1 [SF-11, N-(4-ethoxyphenyl)-4-[hydroxy(diphenyl)methyl]piperidine-1-carbothioamide]
- selectivity against NPY Y1 and 38 off-target receptors [2]: selective
- brain penetration ([3]; HTS hit chemotypes): brain-penetrant

- fold less potent than N,N-diethyl sulfonamide analogue 54 ([1]; compared with 54): 18 fold
SMILES: CCN(CC)C(=O)c1ccc(OC(=O)N2CCC(C(O)(c3ccccc3)c3ccccc3)CC2)cc1 [Compound 60]

- NPY Y2 antagonist activity (in words) [1]: no activity
SMILES: COC(c1ccccc1)(c1ccccc1)C1CCN(C(=S)Nc2ccc(S(=O)(=O)N(C)C)cc2)CC1 [Compound 35]

- NPY Y2 antagonist activity (in words) [1]: complete loss of activity
SMILES: CCOc1ccc(NC(=S)N2CCC(C(O)(c3ccccc3)C3CCCCC3)CC2)cc1 (stereo not shown) [Compound 38]

- NPY Y2 antagonist activity (in words) [1]: inactive
SMILES: CN(C)S(=O)(=O)c1ccc(NC(=S)N2CCN(C3c4ccccc4CCc4ccccc43)CC2)cc1 [Compound 45]

- NPY Y2 antagonist activity (in words) [1]: complete loss of activity
SMILES: CCOc1ccc(NC(=S)N2CCC(C(O)(c3ccccc3)c3ccccc3)CC2)c(C(F)(F)F)c1 [Compound 28]

- NPY Y2 antagonist activity (in words) [1]: completely lost the activity
SMILES: CC(=O)Nc1ccc(OC(=O)N2CCC(C(O)(c3ccccc3)c3ccccc3)CC2)cc1 [Compound 61]

- NPY Y2 antagonist activity (in words) [1]: no activity
SMILES: CCN(CC)S(=O)(=O)c1cccc(OC(=O)N2CCC(C(O)(c3ccccc3)c3ccccc3)CC2)c1 [Compound 65]

- NPY Y2 antagonist activity (in words) [1]: partial antagonism
SMILES: CCOC(=O)c1cccc(NC(=S)N2CCC(C(O)(c3ccccc3)c3ccccc3)CC2)c1 [Compound 22]

SMILES: Cc1ccc(C)c(NS(=O)(=O)c2cc(C(=O)Nc3ccccc3-c3ccccc3)ccc2C)c1 [SF-21]
- selectivity against NPY Y1 and 38 off-target receptors [2]: selective
- brain penetration ([3]; HTS hit chemotypes): brain-penetrant

- fold less potent than SF-11 ([1]; less potent than SF-11): ~7 fold
SMILES: CCOc1ccc(NC(=S)N2CCC(C(O)(c3ccccc3)c3ccccc3)CC2)c(F)c1 [Compound 30]

- NPY Y2 antagonist activity (in words) [1]: retained the activity
SMILES: CCOc1ccc(NC(=S)N2CCN(C(c3ccccc3)c3ccccc3)CC2)cc1 [Compound 36]
